Results: US9051270B2, “Pyridone amides as modulators of sodium channels” (Vertex Pharmaceuticals Incorporated, priority 2013, dated 2015)

Biological target: human Nav1.8 (Homo sapiens (Human), UniProt Q9Y5Y9)
Assay: E-VIPR optical membrane potential assay with electrical stimulation
Assay type: cell-based
Conditions: HEK cells expressing human Nav1.8
Source text: Sodium channels are voltage-dependent proteins that can be activated by inducing membrane voltage changes by applying electric fields. […] The instrument comprises a microtiter plate handler, an optical system for exciting the coumarin dye while simultaneously recording the coumarin and oxonol emissions, a waveform generator, a current- or voltage-controlled amplifier, and a device for inserting electrodes in well. Under integrated computer control, this instrument passes user-programmed electrical stimulus protocols to cells within the wells of the microtiter plate.
24 hours before the assay on E-VIPR, HEK cells expressing human Nav1.8 were seeded in 384-well poly-lysine coated plates at 15,000-20,000 cells per well. […] Cells were grown in vented cap flasks, in 90% humidity and 5% CO2.
To make the solution added volume of 10% Pluronic F127 stock equal to volumes of CC2-DMPE+DiSBAC6(3). The order of preparation was first mixing Pluronic and CC2-DMPE, then adding DiSBAC6(3) while vortexing, then adding Bath1+β-Cyclodextrin.
1) Pre-spotted compounds (in neat DMSO) into compound plates. […] Final compound plate volume was 80 μL (80-fold intermediate dilution from 1 μL DMSO spot; 160-fold final dilution after transfer to cell plate).
2) Prepared Hexyl Dye Solution.
3) Prepared cell plates. On the day of the assay, medium was aspirated and cells were washed three times with 100 μL of Bath1 Solution, maintaining 25 μL residual volume in each well.
4) Dispensed 25 μL per well of Hexyl Dye Solution into cell plates. Incubated for 20-35 minutes at room temp or ambient conditions.
5) Dispensed 80 μL per well of Bath1 into compound plates. Acid Yellow-17 (1 mM) was added and Potassium Chloride was altered from 4.5 to 20 mM depending on the NaV subtype and assay sensitivity.
6) Washed cell plates three times with 100 μL per well of Bath1, leaving 25 μL of residual volume. Then transferred 25 uL per well from Compound Plates to Cell Plates. Incubated for 20-35 minutes at room temp/ambient condition.
7) Read Plate on E-VIPR. […] A pre-stimulus recording was performed for 0.5 seconds to obtain the un-stimulated intensities baseline. The stimulatory waveform was followed by 0.5 seconds of post-stimulation recording to examine the relaxation to the resting state.
Data was analyzed and reported as normalized ratios of emission intensities measured in the 460 nm and 580 nm channels. The response as a function of time was reported as the ratios obtained using the following formula: […]
The data was further reduced by calculating the initial (Ri) and final (Rf) ratios. These were the average ratio values during part or all of the pre-stimulation period, and during sample points during the stimulation period. The response to the stimulus R=Rf/Ri was then calculated and reported as a function of time.
Control responses were obtained by performing assays in the presence of a compound with the desired properties (positive control), such as tetracaine, and in the absence of pharmacological agents (negative control). Responses to the negative (N) and positive (P) controls were calculated as above. The compound antagonist activity A is defined as:
[formula] where R is the ratio response of the test compound

human Nav1.8, sequence (Q9Y5Y9 whole entry): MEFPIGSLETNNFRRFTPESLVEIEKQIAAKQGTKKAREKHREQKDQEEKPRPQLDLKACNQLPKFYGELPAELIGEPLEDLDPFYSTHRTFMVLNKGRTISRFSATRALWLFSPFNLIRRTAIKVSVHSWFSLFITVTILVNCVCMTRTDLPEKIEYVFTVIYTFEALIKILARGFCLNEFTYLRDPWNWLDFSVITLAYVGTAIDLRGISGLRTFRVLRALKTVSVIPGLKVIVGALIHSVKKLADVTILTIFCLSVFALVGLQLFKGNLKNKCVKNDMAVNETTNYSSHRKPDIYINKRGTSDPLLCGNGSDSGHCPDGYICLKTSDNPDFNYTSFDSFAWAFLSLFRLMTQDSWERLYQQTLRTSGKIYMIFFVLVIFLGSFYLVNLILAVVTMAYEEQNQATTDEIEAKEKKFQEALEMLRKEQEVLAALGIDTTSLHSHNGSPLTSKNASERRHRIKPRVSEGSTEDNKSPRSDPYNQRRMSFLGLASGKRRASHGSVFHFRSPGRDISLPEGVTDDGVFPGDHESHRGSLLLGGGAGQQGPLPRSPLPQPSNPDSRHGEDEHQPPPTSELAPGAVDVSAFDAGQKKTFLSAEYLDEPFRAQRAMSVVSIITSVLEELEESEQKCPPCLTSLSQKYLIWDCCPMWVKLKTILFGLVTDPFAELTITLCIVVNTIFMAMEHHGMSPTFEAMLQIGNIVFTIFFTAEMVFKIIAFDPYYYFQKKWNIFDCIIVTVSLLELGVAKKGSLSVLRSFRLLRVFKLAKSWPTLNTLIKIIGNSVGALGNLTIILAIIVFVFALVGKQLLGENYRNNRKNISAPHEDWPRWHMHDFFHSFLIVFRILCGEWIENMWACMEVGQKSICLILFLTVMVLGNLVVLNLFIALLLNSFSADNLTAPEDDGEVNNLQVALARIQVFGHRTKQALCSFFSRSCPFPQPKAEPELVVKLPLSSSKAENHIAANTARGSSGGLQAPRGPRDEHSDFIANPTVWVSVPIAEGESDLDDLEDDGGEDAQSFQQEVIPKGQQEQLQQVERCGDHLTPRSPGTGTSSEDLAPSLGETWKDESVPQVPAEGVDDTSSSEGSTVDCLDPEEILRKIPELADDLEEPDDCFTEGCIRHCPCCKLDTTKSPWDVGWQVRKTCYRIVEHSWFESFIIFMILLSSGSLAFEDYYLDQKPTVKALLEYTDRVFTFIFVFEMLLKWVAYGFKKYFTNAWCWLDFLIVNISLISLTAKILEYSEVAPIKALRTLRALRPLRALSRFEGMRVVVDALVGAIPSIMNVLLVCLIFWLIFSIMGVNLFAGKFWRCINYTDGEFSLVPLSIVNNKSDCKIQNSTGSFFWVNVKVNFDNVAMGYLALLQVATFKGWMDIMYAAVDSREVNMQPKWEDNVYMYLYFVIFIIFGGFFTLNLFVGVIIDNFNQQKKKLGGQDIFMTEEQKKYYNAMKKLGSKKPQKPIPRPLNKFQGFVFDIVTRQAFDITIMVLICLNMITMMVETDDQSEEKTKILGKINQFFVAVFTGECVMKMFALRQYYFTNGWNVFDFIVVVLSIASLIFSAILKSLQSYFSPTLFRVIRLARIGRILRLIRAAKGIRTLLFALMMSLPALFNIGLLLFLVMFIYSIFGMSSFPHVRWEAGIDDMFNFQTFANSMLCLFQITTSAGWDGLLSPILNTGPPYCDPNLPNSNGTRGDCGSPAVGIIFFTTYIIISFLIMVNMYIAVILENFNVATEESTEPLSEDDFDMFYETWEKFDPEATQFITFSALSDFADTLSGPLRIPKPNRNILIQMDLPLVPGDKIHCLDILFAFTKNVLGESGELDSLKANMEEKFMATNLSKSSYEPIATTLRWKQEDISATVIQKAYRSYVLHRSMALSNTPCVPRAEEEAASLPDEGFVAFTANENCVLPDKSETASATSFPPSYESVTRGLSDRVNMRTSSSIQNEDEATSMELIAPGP

Row | IC50 [nM] | Structure (SMILES)
1 | 65 | O=C(Nc1cc[nH]c(=O)c1)c1ccc(Cl)cc1Oc1ccc(F)cc1Cl [Compound 14, 4-chloro-2-(2-chloro-4-fluorophenoxy)-N-(2-oxo-1,2-dihydropyridin-4-yl)benzamide]
2 | 2600 | O=C(Nc1cc[nH]c(=O)c1)c1ccc(C(F)(F)F)cc1OCc1cc(F)ccc1O [Compound 159, 2-((5-fluoro-2-hydroxybenzyl)oxy)-N-(2-oxo-1,2-dihydropyridin-4-yl)-4-(trifluoromethyl)benzamide]
3 | 68 | COc1cc(F)ccc1Oc1ccc(OC(F)(F)F)cc1C(=O)Nc1cc[nH]c(=O)c1 [Compound 42, 2-(4-fluoro-2-methoxyphenoxy)-N-(2-oxo-1,2-dihydropyridin-4-yl)-5-(trifluoromethoxy)benzamide]
4 | 56 | Cc1ccccc1Oc1cc(C(F)(F)F)ccc1C(=O)Nc1cc[nH]c(=O)c1 [Compound 11, N-(2-oxo-1,2-dihydropyridin-4-yl)-2-(o-tolyloxy)-4-(trifluoromethyl)benzamide]
5 | 330 | O=C(Nc1cc[nH]c(=O)c1)c1cc(C(F)(F)F)ccc1OCCC(F)(F)F [Compound 132, N-(2-oxo-1,2-dihydropyridin-4-yl)-5-(trifluoromethyl)-2-(3,3,3-trifluoropropoxy)benzamide]
6 | 39 | O=C(Nc1cc[nH]c(=O)c1)c1ccc(C(F)(F)F)cc1Oc1ccc(F)cc1 [Compound 5, 2-(4-fluorophenoxy)-N-(2-oxo-1,2-dihydropyridin-4-yl)-4-(trifluoromethyl)benzamide]
7 | 1450 | Cc1cc(C)c(Oc2ccc(C(F)(F)F)cc2C(=O)Nc2cc[nH]c(=O)c2)cc1C [Compound 93, N-(2-oxo-1,2-dihydropyridin-4-yl)-5-(trifluoromethyl)-2-(2,4,5-trimethylphenoxy)benzamide]
8 | 2600 | O=C(Nc1cc[nH]c(=O)c1)c1cc(OC(F)(F)F)ccc1OCC1CCCC1 [Compound 136, 2-(cyclopentylmethoxy)-N-(2-oxo-1,2-dihydropyridin-4-yl)-5-(trifluoromethoxy)benzamide]
9 | 100 | COc1cc(F)ccc1Oc1cc(C#N)ccc1C(=O)Nc1cc[nH]c(=O)c1 [Compound 22, 4-cyano-2-(4-fluoro-2-methoxyphenoxy)-N-(2-oxo-1,2-dihydropyridin-4-yl)benzamide]
10 | 17100 | COCCc1ccc(Oc2ccc(F)cc2C(=O)Nc2cc[nH]c(=O)c2)cc1 [Compound 102, 5-fluoro-2-(4-(2-methoxyethyl)phenoxy)-N-(2-oxo-1,2-dihydropyridin-4-yl)benzamide]
11 | 560 | O=C(Nc1cc[nH]c(=O)c1)c1ccc(C(F)(F)F)cc1OC1CCCCC1 [Compound 128, 2-(cyclohexyloxy)-N-(2-oxo-1,2-dihydropyridin-4-yl)-4-(trifluoromethyl)benzamide]
12 | 47 | CCCOc1ccc(Oc2ccc(C(F)(F)F)cc2C(=O)Nc2cc[nH]c(=O)c2)cc1 [Compound 53, N-(2-oxo-1,2-dihydropyridin-4-yl)-2-(4-propoxyphenoxy)-5-(trifluoromethyl)benzamide]
13 | 94 | COc1ccc(F)cc1Oc1ccc(C(F)(F)F)cc1C(=O)Nc1cc[nH]c(=O)c1 [Compound 52, 2-(5-fluoro-2-methoxyphenoxy)-N-(2-oxo-1,2-dihydropyridin-4-yl)-5-(trifluoromethyl)benzamide]
14 | 40 | Cc1cc(F)ccc1Oc1ccc(OC(F)(F)F)cc1C(=O)Nc1cc[nH]c(=O)c1 [Compound 40, 2-(4-fluoro-2-methylphenoxy)-N-(2-oxo-1,2-dihydropyridin-4-yl)-5-(trifluoromethoxy)benzamide]
15 | 35 | O=C(Nc1cc[nH]c(=O)c1)c1cc(C(F)(F)F)ccc1Oc1ccc(OC(F)F)cc1 [Compound 73, 2-(4-(difluoromethoxy)phenoxy)-N-(2-oxo-1,2-dihydropyridin-4-yl)-5-(trifluoromethyl)benzamide]
16 | 87 | O=C(Nc1cc[nH]c(=O)c1)c1cc(C(F)(F)F)ccc1Oc1ccc(Cl)cc1F [Compound 51, 2-(4-chloro-2-fluorophenoxy)-N-(2-oxo-1,2-dihydropyridin-4-yl)-5-(trifluoromethyl)benzamide]
17 | 1300 | O=C(Nc1cc[nH]c(=O)c1)c1ccc(C(F)(F)F)cc1OC1CC2CCC1C2 (centres unmarked) [Compound 127, 2-(bicyclo[2.2.1]heptan-2-yloxy)-N-(2-oxo-1,2-dihydropyridin-4-yl)-4-(trifluoromethyl)benzamide]
18 | 5180 | O=C(Nc1cc[nH]c(=O)c1)c1cc(C(F)(F)F)ccc1Oc1ccc(C(F)(F)F)cc1 [Compound 74, N-(2-oxo-1,2-dihydropyridin-4-yl)-5-(trifluoromethyl)-2-(4-(trifluoromethyl)phenoxy)benzamide]
19 | 34 | CCCOc1ccccc1Oc1ccc(C(F)(F)F)cc1C(=O)Nc1cc[nH]c(=O)c1 [Compound 62, N-(2-oxo-1,2-dihydropyridin-4-yl)-2-(2-propoxyphenoxy)-5-(trifluoromethyl)benzamide]
20 | 16 | COc1ccc(Oc2cc(C(F)(F)C(F)(F)F)ccc2C(=O)Nc2cc[nH]c(=O)c2)cc1F [Compound 89, 2-(3-fluoro-4-methoxyphenoxy)-N-(2-oxo-1,2-dihydropyridin-4-yl)-4-(perfluoroethyl)benzamide]
21 | 106 | Cc1ccc(Oc2cc(C(F)(F)F)ccc2C(=O)Nc2cc[nH]c(=O)c2)cc1 [Compound 12, N-(2-oxo-1,2-dihydropyridin-4-yl)-2-(p-tolyloxy)-4-(trifluoromethyl)benzamide]
22 | 5000 | O=C(Nc1ccc(=O)[nH]c1)c1ccc(C(F)(F)F)cc1Oc1ccc(C(F)(F)F)nc1 [Compound 145, N-(6-oxo-1,6-dihydropyridin-3-yl)-4-(trifluoromethyl)-2-((6-(trifluoromethyl)pyridin-3-yl)oxy)benzamide]
23 | 1090 | O=C(Nc1cc[nH]c(=O)c1)c1ccccc1Oc1ccc(F)cc1 [Compound 1, 2-(4-fluorophenoxy)-N-(2-oxo-1,2-dihydropyridin-4-yl)benzamide]
24 | 488 | CC(C)CCOc1cc(C(F)(F)F)ccc1C(=O)Nc1cc[nH]c(=O)c1 [Compound 116, 2-(isopentyloxy)-N-(2-oxo-1,2-dihydropyridin-4-yl)-4-(trifluoromethyl)benzamide]
25 | 46 | O=C(Nc1cc[nH]c(=O)c1)c1ccc(C(F)(F)F)cc1Oc1ccccc1OC(F)F [Compound 83, 2-(2-(difluoromethoxy)phenoxy)-N-(2-oxo-1,2-dihydropyridin-4-yl)-4-(trifluoromethyl)benzamide]
26 | 78 | CC(C)(C)c1ccc(C(=O)Nc2cc[nH]c(=O)c2)c(Oc2ccc(C(F)(F)F)nc2)c1 [Compound 141, 4-(tert-butyl)-N-(2-oxo-1,2-dihydropyridin-4-yl)-2-((6-(trifluoromethyl)pyridin-3-yl)oxy)benzamide]
27 | 300 | CCOc1ccc(Oc2ccc(F)cc2C(=O)Nc2cc[nH]c(=O)c2)cc1 [Compound 98, 2-(4-ethoxyphenoxy)-5-fluoro-N-(2-oxo-1,2-dihydropyridin-4-yl)benzamide]
28 | 27 | COc1c(F)cccc1Oc1cc(C(F)(F)F)ccc1C(=O)Nc1cc[nH]c(=O)c1 [Compound 87, 2-(3-fluoro-2-methoxyphenoxy)-N-(2-oxo-1,2-dihydropyridin-4-yk)-4-(trifluoromethyl)benzamide]
29 | 245 | O=C(Nc1ccc(=O)[nH]c1)c1ccc(C(F)(F)F)cc1Oc1ccc(F)cc1 [Compound 6, 2-(4-fluorophenoxy)-N-(6-oxo-1,6-dihydropyridin-3-yl)-4-(trifluoromethyl)benzamide]

Row | Structure (SMILES) | IC50 [nM]
30 | O=C(Nc1cc[nH]c(=O)c1)c1cc(C(F)(F)F)ccc1OCCCC(F)(F)F [Compound 133, N-(2-oxo-1,2-dihydropyridin-4-yl)-2-(4,4,4-trifluorobutoxy)-5-(trifluoromethyl)benzamide] | 5800
31 | O=C(Nc1cc[nH]c(=O)c1)c1cc(F)ccc1Oc1ccc(OCCCC(F)(F)F)cc1 [Compound 160, 5-fluoro-N-(2-oxo-1,2-dihydropyridin-4-yl)-2-(4-(4,4,4-trifluorobutoxy)phenoxy)benzamide] | 1390
32 | O=C(Nc1cc[nH]c(=O)c1)c1ccc(Cl)cc1OCCCC(F)(F)F [Compound 129, 4-chloro-N-(2-oxo-1,2-dihydropyridin-4-yl)-2-(4,4,4-trifluorobutoxy)benzamide] | 940
